Data published in ChEMBL document CHEMBL3046253, “Design, synthesis and in vitro PDE4 inhibition activity of certain quinazolinone derivatives for treatment of asthma” (Med Chem Res, 2012).

Target: 3',5'-cyclic-AMP phosphodiesterase 4B (Homo sapiens) (UniProt Q07343)
Assay: Inhibition of PDE4B2 (unknown origin) using FAM-cAMP as substrate at 10 uM after 60 min by fluorescence polarization assay

Sequence of 3',5'-cyclic-AMP phosphodiesterase 4B (Homo sapiens) (Q07343 whole entry): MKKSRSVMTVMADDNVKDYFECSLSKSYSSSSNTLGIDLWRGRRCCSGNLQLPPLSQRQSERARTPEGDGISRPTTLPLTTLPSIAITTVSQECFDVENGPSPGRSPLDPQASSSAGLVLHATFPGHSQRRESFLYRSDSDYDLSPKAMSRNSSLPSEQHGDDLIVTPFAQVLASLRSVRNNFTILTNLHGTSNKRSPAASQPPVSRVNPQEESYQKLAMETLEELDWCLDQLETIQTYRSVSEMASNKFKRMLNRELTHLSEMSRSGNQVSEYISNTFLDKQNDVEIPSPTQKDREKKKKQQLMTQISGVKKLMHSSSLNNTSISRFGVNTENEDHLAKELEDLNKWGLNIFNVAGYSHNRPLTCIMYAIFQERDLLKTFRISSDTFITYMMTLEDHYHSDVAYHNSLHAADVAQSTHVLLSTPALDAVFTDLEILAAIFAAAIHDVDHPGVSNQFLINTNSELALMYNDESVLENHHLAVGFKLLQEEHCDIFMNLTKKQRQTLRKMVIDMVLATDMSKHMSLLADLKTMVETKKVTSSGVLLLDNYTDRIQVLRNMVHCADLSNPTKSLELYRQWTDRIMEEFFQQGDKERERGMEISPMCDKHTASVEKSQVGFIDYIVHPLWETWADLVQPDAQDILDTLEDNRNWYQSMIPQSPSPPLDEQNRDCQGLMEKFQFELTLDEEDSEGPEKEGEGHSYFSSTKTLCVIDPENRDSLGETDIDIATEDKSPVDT

Row | SMILES | inhibition
1 | COc1ccc(C2CNC(=O)C2)cc1OC1CCCC1 (stereo not given) | 90%
2 | CCCCN1C(=O)c2ccccc2NC1c1ccc(O)c(OC)c1 (stereo not given) | 15%
3 | CCCCn1c(=O)c2ccccc2n2c(-c3ccc(N(C)C)cc3)nnc12 | 6%
4 | CCCCn1c(=O)c2ccccc2n2c(-c3cccc([N+](=O)[O-])c3)nnc12 | 44%
5 | CCCCN1C(=O)c2ccccc2NC1c1ccc(N(C)C)cc1 (stereo not given) | 7%
6 | CCCCn1c(N/N=C/c2cccc(O)c2)nc2ccccc2c1=O | 11%
7 | CCCCn1c(=O)c2ccccc2n2c(-c3ccc(O)c(OC)c3)nnc12 | 62%
8 | CCCCn1c(=O)c2ccccc2n2c(-c3cccc(O)c3)nnc12 | 44%
9 | CCCCN1C(=O)c2ccccc2NC1c1cccc([N+](=O)[O-])c1 (stereo not given) | 15%
10 | CCCCn1c(N/N=C/c2ccc(N(C)C)cc2)nc2ccccc2c1=O | 19%
